# Publication PMC8365602 (Journal of Medicinal Chemistry, 2021)
# Where two headings read alike, the source gives them in different places.
# Legend:
# 5-LOX [1] = molecular target: T1, 5-LOX (Homo sapiens, UniProt P09917); test: Cell-free 5-LOX activity (isolated human recombinant enzyme)
# T1 sequence (P09917 1-674): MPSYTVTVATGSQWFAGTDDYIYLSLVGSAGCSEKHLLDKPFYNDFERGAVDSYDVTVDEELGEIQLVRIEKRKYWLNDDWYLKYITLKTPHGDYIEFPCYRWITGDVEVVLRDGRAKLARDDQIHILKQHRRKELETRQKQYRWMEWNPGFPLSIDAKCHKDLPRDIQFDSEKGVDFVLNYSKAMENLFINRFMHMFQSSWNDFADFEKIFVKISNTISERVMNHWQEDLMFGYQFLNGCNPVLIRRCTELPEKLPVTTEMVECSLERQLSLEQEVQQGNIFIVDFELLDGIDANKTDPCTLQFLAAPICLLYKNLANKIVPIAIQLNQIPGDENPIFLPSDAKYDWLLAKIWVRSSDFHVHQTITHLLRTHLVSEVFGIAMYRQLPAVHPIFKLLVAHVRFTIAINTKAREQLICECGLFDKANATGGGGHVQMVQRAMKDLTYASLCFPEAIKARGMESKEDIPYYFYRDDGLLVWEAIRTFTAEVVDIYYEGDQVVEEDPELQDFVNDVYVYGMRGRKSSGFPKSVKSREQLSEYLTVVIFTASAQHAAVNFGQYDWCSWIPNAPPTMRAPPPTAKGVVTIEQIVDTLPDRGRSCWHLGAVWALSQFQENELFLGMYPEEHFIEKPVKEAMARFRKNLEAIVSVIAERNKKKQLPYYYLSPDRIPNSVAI
# Protocol: Human recombinant 5-LOX was expressed in E. coli Bl21 (DE3) cells that were transformed with pT3–5LOX (wt 5-LOX), 5-LOX_3W (triple mutation of Trp102Ala/Trp13Ala/Trp75Ala), or 5-LOX_R (single mutant of the Arg101Asp plasmid) and purified on an ATP-agarose column (Econo-Pac, Bio-Rad, Hercules, CA) by affinity chromatography.[6],[75]
# Purified 5-LOX (0.5 μg in PBS pH 7.4 containing 1 mM EDTA and 1 mM ATP) was preincubated with the vehicle (DMSO) or test compounds for 10 min and prewarmed at 37 °C.
# 5-LOX [2] = molecular target: T1, 5-LOX; test: 5-LOX product formation in activated PMNL;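 further: freshly isolated human PMNL in PBS pH 7.4 plus glucose, preincubated 10 min at 37 °C with compound, 5-LOX products (all-trans LTB4 isomers, 5-HETE) quantified by RP-HPLC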
# [3] = read-out: 5-LOX enzyme residual activity at 1 µM (Table S1)
# [4] = PMNL, read-out: 5-LOX PMNL residual activity at 3 µM (Table S1)
# [5] = read-out: 5-LOX enzyme residual activity at 1 μM
# [6] = PMNL, read-out: 5-LOX PMNL residual activity at 3 μM
# [7] = read-out: 5-LOX enzyme IC50, isolated human 5-LOX, cell-free, mean ± SEM
# [8] = read-out: 5-LOX PMNL IC50, 5-LOX product formation in activated PMNL, mean ± SEM
SMILES,IC50 (5-LOX [1]) [nM],remaining activity at 1 µM (5-LOX [1]; [3]) [%],IC50 (5-LOX [2]) [nM],remaining activity at 3 µM (5-LOX [2]; [4]) [%],"remaining activity at 1 µM (5-LOX [2]; PMNL, read-out: 5-LOX PMNL residual activity at 1 µM (Table S1, cell marked b)) [%]",remaining activity at 1 µM (5-LOX [1]; [5]) [%],remaining activity at 3 µM (5-LOX [2]; [6]) [%],IC50 (5-LOX [1]; [7]) [nM],IC50 (5-LOX [2]; [8]) [nM]
"Cc1c(C=O)c(O)c(Cl)c2c1O[C@](C)(CCC[C@H](C)CCC[C@H](C)CCCC(C)C)CC2 [Compound 2, (R)-5-Chloro-6-hydroxy-2,8-dimethyl-2-((4R,8R)-4,8,12-trimethyltridecyl)chromane-7-carbaldehyde]",> 1000,72.9 ± 5.6,> 3000,110 ± 10.7,,,,,
Cc1cc(O)c(C=O)c2c1O[C@](C)(CCC[C@H](C)CCC[C@H](C)CCCC(C)C)CC2 [Compound 3],> 1000,94.6 ± 3.5,> 3000,92.2 ± 6.3,,,,,
"COCOc1cc(C)c2c(c1C=O)CC[C@@](C)(CCC[C@H](C)CCC[C@H](C)CCCC(C)C)O2 [Compound 4, (R)-6-(Methoxymethoxy)-2,8-dimethyl-2-((4R,8R)-4,8,12-trimethyltridecyl)chromane-5-carbaldehyde]",> 1000,77.3 ± 17.2,> 3000,91.9 ± 5.3,,,,,
Cc1cc(O)c(C(=O)O)c2c1O[C@](C)(CCC[C@H](C)CCC[C@H](C)CCCC(C)C)CC2 [Compound 5],> 1000,54.6 ± 5.8,> 3000,80.8 ± 0.6,,,,,
CC(C)=CCC/C(C)=C/CC/C(C)=C/CC[C@]1(C)CCc2c(C=O)c(O)cc(C)c2O1 [Compound 7],> 1000,74.5 ± 4.3,> 3000,87.1 ± 8,,,,,
CC(C)=CCC/C(C)=C/CC/C(C)=C/CC[C@]1(C)CCc2c(C=O)c(O)c(Br)c(C)c2O1 [Compound 8],> 1000,59 ± 5.9,> 3000,79.2 ± 16.7,,,,,
C/C(=C\CC/C(C)=C/CC[C@]1(C)CCc2cc(O)cc(C)c2O1)CC/C=C(/C=O)CO [Compound 11],120 ± 50,0.4 ± 0.3,570 ± 90,,17.6 ± 1.3,,,,
Cc1cc(O)cc2c1O[C@](C)(CCCC(C)CCCC(C)CCCC(C)C(=O)O)CC2 (some centres unmarked) [Compound 12b],,,,,,51.4 ± 3.1,40.8 ± 3.5,,
C/C(=C\CC/C(C)=C/CC[C@]1(C)CCc2cc(O)c(C)c(C)c2O1)CC/C=C(\C)C(=O)O [Compound 13c],,,,,,4.1 ± 3.6,1.6 ± 1.6,,
"C/C(=C\CC/C(C)=C/CC[C@]1(C)CCc2cc(O)cc(C)c2O1)CC/C=C/C(=O)O [Compound 14, (2E,6E,10E)-13-[(2R)-6-Hydroxy-2,8-dimethyl-3,4-dihydro-2H-1-benzopyran-2-yl]-6,10-dimethyltrideca-2,6,10-trienoic Acid]",,,,,,24.5 ± 2.8,26.9 ± 4.8,440 ± 80,2200 ± 140
"C/C(=C\CC[C@]1(C)CCc2c(C)c(O)c(C)c(C)c2O1)CC/C=C(\C)CCC(=O)O [Compound 15a, (4E,8E)-11-((R)-6-Hydroxy-2,5,7,8-tetramethylchroman-2-yl)-4,8-dimethylundeca-4,8-dienoic Acid]",,,,,,11.5 ± 1.8,10.6 ± 5.8,440 ± 70,450 ± 120
"C/C(=C\CC[C@]1(C)CCc2cc(O)cc(C)c2O1)CC/C=C(\C)CCC(=O)O [Compound 15b, (4E,8E)-11-((R)-6-Hydroxy-2,8-dimethylchroman-2-yl)-4,8-dimethylundeca-4,8-dienoic Acid]",,,,,,28.8 ± 5.2,32 ± 9.8,470 ± 140,2190 ± 400
"C/C(=C\CC[C@]1(C)CCc2cc(O)cc(C)c2O1)CC/C=C/C(=O)O [Compound 16, (2E,6E)-9-[(2R)-6-Hydroxy-2,8-dimethyl-3,4-dihydro-2H-1-benzopyran-2-yl]-6-methylnona-2,6-dienoic Acid]",,,,,,47.3 ± 1.1,77 ± 3.9,920 ± 40,> 3000
"Cc1cc(O)cc2c1O[C@](C)(CC/C=C/C(=O)O)CC2 [Compound 17, (2E)-5-[(2R)-6-Hydroxy-2,8-dimethyl-3,4-dihydro-2H-1-benzopyran-2-yl]pent-2-enoic Acid]",,,,,,65.3 ± 25.2,101 ± 5.2,> 1000,> 3000
"C/C(=C\CC[C@]1(C)CCc2cc(O)cc(C)c2O1)C(=O)O [Compound 18, (R,E)-5-(6-Hydroxy-2,8-dimethylchroman-2-yl)-2-methylpent-2-enoic Acid]",,,,,,56.4 ± 18.3,88.8 ± 6.4,> 1000,> 3000
"C/C(=C\CC[C@]1(C)CCc2c(C)c(O)cc(C)c2O1)CC/C=C(\C)CCCC(C)C(=O)O (stereo partly drawn) [Compound 19a, (6E,10E)-13-((R)-6-Hydroxy-2,5,8-trimethylchroman-2-yl)-2,6,10-trimethyltrideca-6,10-dienoic Acid]",,,,,,41.2 ± 6.2,14.2 ± 6.5,810 ± 80,810 ± 330
"C/C(=C\CC[C@]1(C)CCc2cc(O)cc(C)c2O1)CC/C=C(\C)CCCC(C)C(=O)O (stereo partly drawn) [Compound 19b, (6E,10E)-13-((R)-6-Hydroxy-2,8-dimethylchroman-2-yl)-2,6,10-trimethyltrideca-6,10-dienoic Acid]",,,,,,7.4 ± 2.7,3.8 ± 0.8,,610 ± 150
"COc1cc(C)c2c(c1)CC[C@@](C)(CC/C=C(\C)CC/C=C(\C)CCCC(C)C(=O)O)O2 (stereo partly drawn) [Compound 20, (6E,10E)-13-((R)-6-Methoxy-2,8-dimethylchroman-2-yl)-2,6,10-trimethyltrideca-6,10-dienoic Acid]",,,,,,98.1 ± 1.3,,> 1000,
"COC(=O)C(C)CCC/C(C)=C/CC/C(C)=C/CC[C@]1(C)CCc2cc(O)cc(C)c2O1 (stereo partly drawn) [Compound 21, (6E,10E)-Methyl-13-((R)-6-hydroxy-2,8-dimethylchroman-2-yl)-2,6,10-trimethyltrideca-6,10-dienoate]",,,,,,5.8 ± 1.7,14.1 ± 6,170 ± 10,1140 ± 390
"COC(=O)C(C)CCC/C(C)=C/CC/C(C)=C/CC[C@]1(C)CCc2cc(OC)cc(C)c2O1 (stereo partly drawn) [Compound 22, (6E,10E)-Methyl-13-((R)-6-methoxy-2,8-dimethylchroman-2-yl)-2,6,10-trimethyltrideca-6,10-dienoate]",,,,,,88.7 ± 4.3,,> 1000,
C/C(=C\CC/C(C)=C/CC[C@]1(C)CCc2c(CN(C)C)c(O)cc(C)c2O1)CC/C=C(\C)C(=O)O [Compound 23],,,,,,7.9 ± 3.6,33.1 ± 8,70 ± 20,2060 ± 450
C/C(=C\CC/C(C)=C/CC[C@]1(C)CCc2c(CN(C)C)c(O)c(CN(C)C)c(C)c2O1)CC/C=C(\C)C(=O)O [Compound 24],,,,,,95.2 ± 7.9,82.1 ± 24.1,> 1000,> 3000
"COC(=O)/C(C)=C/CC/C(C)=C/CC/C(C)=C/CC[C@]1(C)CCc2c(c(C)cc(O)c2C(=O)OC)O1 [Compound 25, (R)-Methyl-6-hydroxy-2-((3E,7E,11E)-13-methoxy-4,8,12-trimethyl-13-oxotrideca-3,7,11-trien-1-yl)-2,8-dimethylchroman-5-carboxylate]",,,,,,54.5 ± 8.4,79.9 ± 3.6,> 1000,> 3000
"Cc1cc(O)cc2c1O[C@](C)(CCCC(C)CCCC(C)CCCC(CO)CO)CC2 (stereo partly drawn) [Compound 26, 2-(11-((R)-6-Hydroxy-2,8-dimethylchroman-2-yl)-4,8-dimethylundecyl)propane-1,3-diol]",,,,,,53.1 ± 7.4,81.3 ± 0.7,> 1000,> 3000
C/C(=C\CC[C@]1(C)CCc2cc(O)cc(C)c2O1)CCC(O)C(C)(O)CCC=C(CO)CO (some centres unmarked) [Compound 30],,,,,,12.2 ± 4.1,,380 ± 110,
"C/C(=C\CC/C(C)=C/CC[C@]1(C)CCc2cc(OCC(N)=O)cc(C)c2O1)CCC=C(CO)CO [Compound 32, 2-(((R)-2-((3E,7E)-13-Hydroxy-12-(hydroxymethyl)-4,8-dimethyltrideca-3,7,11-trien-1-yl)-2,8-dimethylchroman-6-yl)oxy)acetamide]",,,,,,99.8 ± 5.6,,> 1000,
COc1ccc(C2OCC(=CCC/C(C)=C/CC/C(C)=C/CC[C@]3(C)CCc4cc(O)cc(C)c4O3)CO2)cc1OC (some centres unmarked) [Compound 44],210 ± 140,,,,,12.7 ± 9.3,,,
"COc1ccc(C2OCC(=CCC/C(C)=C/CC/C(C)=C/CC[C@]3(C)CCc4cc(OCCCC(=O)O)cc(C)c4O3)CO2)cc1OC (stereo partly drawn) [Compound 45, 4-(((2R)-2-((3E,7E)-11-(2-(3,4-Dimethoxyphenyl)-1,3-dioxan-5-ylidene)-4,8-dimethylundeca-3,7-dien-1-yl)-2,8-dimethylchroman-6-yl)oxy)butanoic Acid]",> 1000,,,,,83 ± 7.6,,,
